What was measured:
Assay in all cases: relative viability (nuclei count vs DMSO), 5 days (fraction); higher = more cells survive
[1] = compound: CC(O)(CS(=O)(=O)c1ccc(F)cc1)C(=O)Nc1ccc(C#N)c(C(F)(F)F)c1 [Bicalutamide] + Cc1nc(Nc2ncc(C(=O)Nc3c(C)cccc3Cl)s2)cc(N2CCN(CCO)CC2)n1 [Dasatinib] (partner 0.075 µM)
Summary of the method: (§1)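 One day after seeding in 1536-well plates, lung cancer cell lines were dosed by pin tool. Dosing was either single-drug or a fixed anchor-drug dose plus five library-drug doses (not always all listed) in √10 steps. After 5 days, nuclei were stained in one fix-and-stain step and counted on 4× images, and relative viability is the nuclei count of treated wells over that of vehicle wells, given as the median of duplicate plates.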

[2] = compound: C(C(=O)C(=O)O)Br [Bromopyruvate] + Nc1ncn([C@H]2C[C@H](O)[C@@H](CO)O2)c(=O)n1 [Decitabine] (partner 2 µM)
Summary of the method: as §1

[3] = compound: CC(O)(CS(=O)(=O)c1ccc(F)cc1)C(=O)Nc1ccc(C#N)c(C(F)(F)F)c1 [Bicalutamide] + CCNC(=O)c1noc(-c2cc(C(C)C)c(O)cc2O)c1-c1ccc(CN2CCOCC2)cc1 [Luminespib] (partner 0.01 µM)
Summary of the method: as §1

[4] = compound: C(C(=O)C(=O)O)Br [Bromopyruvate] + CC(C)C[C@H](NC(=O)[C@H](Cc1ccccc1)NC(=O)c1cnccn1)B(O)O [Bortezomib] (partner 0.002 µM)
Summary of the method: as §1

With NCI-H1993 the relative viability ([1]; first compound 0.08 µM) was 0.576, the relative viability ([1]; first compound 0.253 µM) was 0.461 and the relative viability ([1]; first compound 0.8 µM) was 0.711. It also gave a relative viability ([1]; first compound 2.53 µM) of 0.582, a relative viability ([2]; first compound 1 µM) of 0.612 and a relative viability ([2]; first compound 3.162 µM) of 0.609. It also gave a relative viability ([2]; first compound 10 µM) of 0.628, a relative viability ([2]; first compound 31.62 µM) of 0.655 and a relative viability ([2]; first compound 100 µM) of 0.464. For the same cell line, the relative viability ([3]; first compound 0.08 µM) was 0.835, the relative viability ([3]; first compound 0.253 µM) was 0.894 and the relative viability ([3]; first compound 0.8 µM) was 1.07. It also gave a relative viability ([3]; first compound 2.53 µM) of 0.999, a relative viability ([4]; first compound 1 µM) of 1.34 and a relative viability ([4]; first compound 3.162 µM) of 0.954. The relative viability ([4]; first compound 10 µM) was 1.21, the relative viability ([4]; first compound 31.62 µM) was 1.08 and the relative viability ([4]; first compound 100 µM) was 1.15.
NCI-H2009 showed a relative viability ([1]; first compound 0.08 µM) of 0.337, a relative viability ([1]; first compound 0.253 µM) of 0.321 and a relative viability ([1]; first compound 0.8 µM) of 0.278. The relative viability ([1]; first compound 2.53 µM) was 0.222, the relative viability ([2]; first compound 1 µM) was 0.352 and the relative viability ([2]; first compound 3.162 µM) was 0.42. For the same cell line, the relative viability ([2]; first compound 10 µM) was 0.336, the relative viability ([2]; first compound 31.62 µM) was 0.349 and the relative viability ([2]; first compound 100 µM) was 0.261. The relative viability ([3]; first compound 0.08 µM) was 1.06, the relative viability ([3]; first compound 0.253 µM) was 1.01 and the relative viability ([3]; first compound 0.8 µM) was 0.987. For the same cell line, the relative viability ([3]; first compound 2.53 µM) was 1.04, the relative viability ([4]; first compound 1 µM) was 1.02 and the relative viability ([4]; first compound 3.162 µM) was 1.02. It also gave a relative viability ([4]; first compound 10 µM) of 0.918, a relative viability ([4]; first compound 31.62 µM) of 0.897 and a relative viability ([4]; first compound 100 µM) of 0.768.
For NCI-H2023, the relative viability ([1]; first compound 0.08 µM) was 0.599, the relative viability ([1]; first compound 0.253 µM) was 0.48 and the relative viability ([1]; first compound 0.8 µM) was 0.758. It also gave a relative viability ([1]; first compound 2.53 µM) of 0.488, a relative viability ([2]; first compound 1 µM) of 0.221 and a relative viability ([2]; first compound 3.162 µM) of 0.205. For the same cell line, the relative viability ([2]; first compound 10 µM) was 0.29, the relative viability ([2]; first compound 31.62 µM) was 0.229 and the relative viability ([2]; first compound 100 µM) was 0.194. It also gave a relative viability ([3]; first compound 0.08 µM) of 0.868, a relative viability ([3]; first compound 0.253 µM) of 0.703 and a relative viability ([3]; first compound 0.8 µM) of 1. For the same cell line, the relative viability ([3]; first compound 2.53 µM) was 0.634, the relative viability ([4]; first compound 1 µM) was 0.95 and the relative viability ([4]; first compound 3.162 µM) was 1.09. It also gave a relative viability ([4]; first compound 10 µM) of 0.969, a relative viability ([4]; first compound 31.62 µM) of 0.914 and a relative viability ([4]; first compound 100 µM) of 1.06.
With NCI-H2085 the relative viability ([1]; first compound 0.08 µM) was 0.227, the relative viability ([1]; first compound 0.253 µM) was 0.261 and the relative viability ([1]; first compound 0.8 µM) was 0.267. For the same cell line, the relative viability ([1]; first compound 2.53 µM) was 0.228, the relative viability ([2]; first compound 1 µM) was 0.626 and the relative viability ([2]; first compound 3.162 µM) was 0.557. For the same cell line, the relative viability ([2]; first compound 10 µM) was 0.529, the relative viability ([2]; first compound 31.62 µM) was 0.593 and the relative viability ([2]; first compound 100 µM) was 0.526. It also gave a relative viability ([3]; first compound 0.08 µM) of 0.59, a relative viability ([3]; first compound 0.253 µM) of 0.587 and a relative viability ([3]; first compound 0.8 µM) of 0.459. It also gave a relative viability ([3]; first compound 2.53 µM) of 0.448, a relative viability ([4]; first compound 1 µM) of 1.07 and a relative viability ([4]; first compound 3.162 µM) of 1.18. It also gave a relative viability ([4]; first compound 10 µM) of 1.15, a relative viability ([4]; first compound 31.62 µM) of 1 and a relative viability ([4]; first compound 100 µM) of 0.792.
With NCI-H2087 the relative viability ([1]; first compound 0.08 µM) was 0.851, the relative viability ([1]; first compound 0.253 µM) was 0.87 and the relative viability ([1]; first compound 0.8 µM) was 1.05. The relative viability ([1]; first compound 2.53 µM) was 0.816, the relative viability ([2]; first compound 1 µM) was 0.307 and the relative viability ([2]; first compound 3.162 µM) was 0.318. The relative viability ([2]; first compound 10 µM) was 0.248, the relative viability ([2]; first compound 31.62 µM) was 0.305 and the relative viability ([2]; first compound 100 µM) was 0.259. The relative viability ([3]; first compound 0.08 µM) was 0.157, the relative viability ([3]; first compound 0.253 µM) was 0.153 and the relative viability ([3]; first compound 0.8 µM) was 0.168. For the same cell line, the relative viability ([3]; first compound 2.53 µM) was 0.259, the relative viability ([4]; first compound 1 µM) was 0.878 and the relative viability ([4]; first compound 3.162 µM) was 0.772. It also gave a relative viability ([4]; first compound 10 µM) of 0.772, a relative viability ([4]; first compound 31.62 µM) of 0.793 and a relative viability ([4]; first compound 100 µM) of 0.9.
NCI-H2126 showed a relative viability ([1]; first compound 0.08 µM) of 0.628, a relative viability ([1]; first compound 0.253 µM) of 0.581 and a relative viability ([1]; first compound 0.8 µM) of 0.632. The relative viability ([1]; first compound 2.53 µM) was 0.555, the relative viability ([2]; first compound 1 µM) was 0.625 and the relative viability ([2]; first compound 3.162 µM) was 0.603. For the same cell line, the relative viability ([2]; first compound 10 µM) was 0.543, the relative viability ([2]; first compound 31.62 µM) was 0.582 and the relative viability ([2]; first compound 100 µM) was 0.564. For the same cell line, the relative viability ([3]; first compound 0.08 µM) was 0.923, the relative viability ([3]; first compound 0.253 µM) was 0.904 and the relative viability ([3]; first compound 0.8 µM) was 1.16. It also gave a relative viability ([3]; first compound 2.53 µM) of 0.915, a relative viability ([4]; first compound 1 µM) of 1.1 and a relative viability ([4]; first compound 3.162 µM) of 1.05. It also gave a relative viability ([4]; first compound 10 µM) of 1.12, a relative viability ([4]; first compound 31.62 µM) of 1.14 and a relative viability ([4]; first compound 100 µM) of 1.15.
Cell Line NCI-H2347 has a relative viability ([1]; first compound 0.08 µM) of 0.318, a relative viability ([1]; first compound 0.253 µM) of 0.307 and a relative viability ([1]; first compound 0.8 µM) of 0.299. For the same cell line, the relative viability ([1]; first compound 2.53 µM) was 0.308, the relative viability ([2]; first compound 1 µM) was 0.605 and the relative viability ([2]; first compound 3.162 µM) was 0.643. For the same cell line, the relative viability ([2]; first compound 10 µM) was 0.541, the relative viability ([2]; first compound 31.62 µM) was 0.616 and the relative viability ([2]; first compound 100 µM) was 0.635. It also gave a relative viability ([3]; first compound 0.08 µM) of 0.357, a relative viability ([3]; first compound 0.253 µM) of 0.399 and a relative viability ([3]; first compound 0.8 µM) of 0.263. For the same cell line, the relative viability ([3]; first compound 2.53 µM) was 0.673, the relative viability ([4]; first compound 1 µM) was 0.862 and the relative viability ([4]; first compound 3.162 µM) was 1.19. For the same cell line, the relative viability ([4]; first compound 10 µM) was 0.893, the relative viability ([4]; first compound 31.62 µM) was 0.723 and the relative viability ([4]; first compound 100 µM) was 1.08.
Work on NCI-H2405 yielded a relative viability ([1]; first compound 0.08 µM) of 0.23, a relative viability ([1]; first compound 0.253 µM) of 0.199 and a relative viability ([1]; first compound 0.8 µM) of 0.235. It also gave a relative viability ([1]; first compound 2.53 µM) of 0.154, a relative viability ([2]; first compound 1 µM) of 0.696 and a relative viability ([2]; first compound 3.162 µM) of 0.732. The relative viability ([2]; first compound 10 µM) was 0.854, the relative viability ([2]; first compound 100 µM) was 0.665 and the relative viability ([3]; first compound 0.08 µM) was 0.669. The relative viability ([3]; first compound 0.253 µM) was 0.661, the relative viability ([3]; first compound 0.8 µM) was 0.826 and the relative viability ([3]; first compound 2.53 µM) was 0.627. It also gave a relative viability ([4]; first compound 1 µM) of 1.02, a relative viability ([4]; first compound 3.162 µM) of 0.992 and a relative viability ([4]; first compound 10 µM) of 1.19. For the same cell line, the relative viability ([4]; first compound 31.62 µM) was 0.954 and the relative viability ([4]; first compound 100 µM) was 1.04.
In the case of NCI-H3122, the relative viability ([1]; first compound 0.08 µM) is reported as 0.922, the relative viability ([1]; first compound 0.253 µM) is reported as 0.791 and the relative viability ([1]; first compound 0.8 µM) is reported as 0.938. It also gave a relative viability ([1]; first compound 2.53 µM) of 0.889, a relative viability ([2]; first compound 1 µM) of 0.454 and a relative viability ([2]; first compound 3.162 µM) of 0.426. For the same cell line, the relative viability ([2]; first compound 10 µM) was 0.365, the relative viability ([2]; first compound 31.62 µM) was 0.425 and the relative viability ([2]; first compound 100 µM) was 0.377. For the same cell line, the relative viability ([3]; first compound 0.08 µM) was 0.0979, the relative viability ([3]; first compound 0.253 µM) was 0.0782 and the relative viability ([3]; first compound 0.8 µM) was 0.126. It also gave a relative viability ([3]; first compound 2.53 µM) of 0.106, a relative viability ([4]; first compound 1 µM) of 1.02 and a relative viability ([4]; first compound 3.162 µM) of 1.01. For the same cell line, the relative viability ([4]; first compound 10 µM) was 1.07, the relative viability ([4]; first compound 31.62 µM) was 0.971 and the relative viability ([4]; first compound 100 µM) was 1.02.

From the supplement of paper PMC10307832
